Laboratory results as given in patent publication US12550894B2, “Insecticidal formulation for vector and pest control with increased contact efficacy” (priority 2018, dated 2026).

Key:
Experiment in all cases: Long term contact efficacy against mosquitos (example 12)
Format in all cases: in vivo
Details in all cases: glazed tiles, 1 day after treatment
Culex quinque fasciatus = test system: Culex quinque fasciatus
Source text: (§1) Glazed tiles have been treated with the WP 10 formulations as described in example 9 based on 4-[(5S)-5-(3,5-dichloro-4-fluorophenyl)-5-(trifluoromethyl)-4,5-dihydro-1,2-oxazol-3-yl]-N-[(4R)-2-ethyl-3-oxo-1,2-oxazolidin-4-yl]-2-methylbenzamide as described in Example 4 and then stored at ambient conditions. […] The contact bioassays have been conducted as outlined in example 9.

Aedes Aegypti = test system: Aedes Aegypti
Source text: as §1

Anopheles funestus = test system: Anopheles funestus
Source text: as §1

Structure (SMILES): CCN1OC[C@@H](NC(=O)c2ccc(C3=NO[C@@](c4cc(Cl)c(F)c(Cl)c4)(C(F)(F)F)C3)cc2C)C1=O [Reference crystalline spray, 4-[(5S)-5-(3,5-dichloro-4-fluorophenyl)-5-(trifluoromethyl)-4,5-dihydro-1,2-oxazol-3-yl]-N-[(4R)-2-ethyl-3-oxo-1,2-oxazolidin-4-yl]-2-methylbenzamide]
- Mortality [%] Culex quinque fasciatus 24 h (Culex quinque fasciatus; 0.8 mg a.i./m^2): 25%
- Mortality [%] Culex quinque fasciatus 24 h (Culex quinque fasciatus; 4 mg a.i./m^2): 88%
- Mortality [%] Culex quinque fasciatus 24 h (Culex quinque fasciatus; 20 mg a.i./m^2): 100%
- Mortality [%] Aedes Aegypti 24 h (Aedes Aegypti; 0.8 mg a.i./m^2): 0%
- Mortality [%] Aedes Aegypti 24 h (Aedes Aegypti; 4 mg a.i./m^2): 89%
- Mortality [%] Aedes Aegypti 24 h (Aedes Aegypti; 20 mg a.i./m^2): 100%
- Mortality [%] Anopheles funestus 24 h (Anopheles funestus; 0.8 mg a.i./m^2): 0%
- Mortality [%] Anopheles funestus 24 h (Anopheles funestus; 4 mg a.i./m^2): 30%
- Mortality [%] Anopheles funestus 24 h (Anopheles funestus; 20 mg a.i./m^2): 90%
